Where two headings read alike, the source gives them in different places.
Assays:
[1] = test system: Histaminic bronchospasm; assay: Histaminic bronchospasm in the Guinea Pig (histamine aerosol technique); assay type: in vivo; conditions: for responders at 50 mg/kg: 50 mg/kg P.O., 45 minutes after treatment, 0.3% histamine aerosol; for ED50: read-out: Bronchospasmolytic activity ED50; for affinity for the bronchopulmonary system; activities (in words): summary of Table II; for responders at 25 mg/kg: * Dose used: 25 mg/kg P.O.
[2] = test system: electrical stimulation of the upper laryngic nerve; assay: Antitussive properties in the Cat (test of Domenjoz, electrical stimulation of the upper laryngic nerve); assay type: in vivo; conditions: for inhibition in vivo at 10 mg/kg / inhibition in vivo at 20 mg/kg: Felis catus, intraduodenal, read-out: Antitussive activity, Mean (percentage of inhibition); for inhibition in vivo at 20 mg/kg: 20 mg/kg I.D.
Procedure: The bronchospasmolytic and also antitussive activities of these compounds were investigated by means of the following tests:
2. Investigation of Antitussive Properties in the Cat
The test used was then of Domenjoz R.(Arch. Exp. Pathol. v. Pharmacol. 215, 1952).
The electrical stimulation of the upper laryngic nerve had the following characteristics: 2v, 6 Hz square waves of 5 msec - period of stimulation 10 to 20 seconds at intervals of 7 minutes 5 seconds. The activity of the product was evaluated as a percentage of inhibition.

[3] = Cavia porcellus, po, 0.75 h, read-out: Bronchospasmolytic activity, % activity
[4] = Cavia porcellus, po, 0.75 h, P.O., linearisation method, ] [: 5% confidence limit of ED50

O=C(c1ccc(Cl)cc1)N1CCCCC1CCN1CCN(c2cccc(Cl)c2)CC1 (stereo not drawn) [Compound 9]
responders at 50 mg/kg [1, 3]: 80% | ED50 [1, 4]: 13 mg/kg

O=C(c1ccccc1)N1CCCCC1CCN1CCN(c2ccc(F)cc2)CC1 (stereo not drawn) [Compound 1]
responders at 50 mg/kg [1, 3]: 60% | inhibition in vivo at 10 mg/kg ([2]; 10 mg/kg I.D.): 73.7 ± 13.7% | antitussive properties (in words) ([2]; summary of Table II): interesting antitussive properties

O=C(c1ccc(Cl)cc1)N1CCCCC1CCN1CCN(c2ccc(F)cc2)CC1 (stereo not drawn) [Compound 2]
responders at 50 mg/kg [1, 3]: 100% | ED50 [1, 4]: 25 mg/kg | affinity for the bronchopulmonary system; activities (in words) [1]: particularly marked | inhibition in vivo at 10 mg/kg ([2]; 10 mg/kg I.D.): 0%

O=C(c1ccccc1)N1CCCCC1CCN1CCN(c2ccc(Cl)cc2)CC1 (stereo not drawn) [Compound 7]
responders at 50 mg/kg [1, 3]: 60% | inhibition in vivo at 20 mg/kg [2]: 74%

O=C(c1ccc(Cl)cc1)N1CCC(CCN2CCN(c3ccc(Cl)cc3)CC2)CC1 [Compound 10, 1-(4-chloro)benzolyl-4-{2-[4-(4-chloro)phenyl] -piperazinyl} -ethyl piperidine]
responders at 50 mg/kg [1, 3]: 100% | inhibition in vivo at 20 mg/kg [2]: 0%

COc1ccc2c(c1)C13CCCCC1C(C2)N(C)CC3 (stereo not drawn) [Dextrome-torphane, Dextrometorphane, reference compound]
responders at 100 mg/kg [1, 3]: 0% | inhibition in vivo at 10 mg/kg [2]: 76.2 ± 34%

O=C(c1ccc(Cl)cc1)N1CCC(CCN2CCN(c3ccc(F)cc3)CC2)CC1 [Compound 13]
responders at 25 mg/kg [1, 3]: 100% | ED50 [1, 4]: 11.6 mg/kg | affinity for the bronchopulmonary system; activities (in words) [1]: particularly marked | inhibition in vivo at 20 mg/kg [2]: 0%

O=C(c1ccc(F)cc1)N1CCCCC1CCN1CCN(c2ccc(F)cc2)CC1 (stereo not drawn) [Compound 4, 1-(4-fluoro)-benzoyl-2-{2-[4-(4-fluoro)phenyl]piperazinyl} ethyl piperidine]
responders at 50 mg/kg [1, 3]: 100% | ED50 [1, 4]: 5.7 mg/kg | affinity for the bronchopulmonary system; activities (in words) [1]: particularly marked | inhibition in vivo at 10 mg/kg ([2]; 10 mg/kg I.D.): 58.6 ± 19.2%

CN(C)CCOC(c1ccccc1)c1ccccc1 [Diphenyl-dramine, Diphenyldramine, reference compound]
responders at 10 mg/kg ([1]; Cavia porcellus, inhaled or nasal, 0.75 h, read-out: Bronchospasmolytic activity, % activity): 93% | ED50 ([1]; Cavia porcellus, po, 0.75 h): 4.5 mg/kg | inhibition in vivo at 10 mg/kg [2]: 65.3 ± 9.5%

O=C(c1ccc(F)cc1)N1CCC(CCN2CCN(c3ccc(Cl)cc3)CC2)CC1 [Compound 12]
responders at 50 mg/kg [1, 3]: 70% | ED50 [1, 4]: 30.9 mg/kg | inhibition in vivo at 20 mg/kg [2]: 0%

O=C(c1ccc(F)cc1)N1CCC(CCN2CCN(c3ccc(F)cc3)CC2)CC1 [Compound 14]
responders at 25 mg/kg [1, 3]: 100% | ED50 [1, 4]: 0.94 mg/kg | affinity for the bronchopulmonary system; activities (in words) [1]: particularly marked | inhibition in vivo at 20 mg/kg [2]: 44.7 ± 29.3%

Source: patent publication US4029790A, “1-Benzoyl-2 or 4 [2-(4-phenyl-piperazino)-ethyl]-piperidines” (Centre European de Recherches Mauvernay, priority 1974, dated 1977)
